Results from ChEMBL document CHEMBL1201862, “PubChem BioAssay data set” (2004).
Calls of active or inactive are those of the source.

Columns and labels:
[1] = molecular target: Cytochrome P450 2D6 (Homo sapiens, UniProt P10635);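 further: CYP2D6 member of a cytochrome P450 panel assay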
[2] = molecular target: T1, Protein RecA (Mycobacterium tuberculosis, UniProt P9WHJ3); assay: Fluorescence Cell-Free Homogeneous Dose Retest to Identify Inhibitors of RecA-Intein Splicing Activity. [Related pubchem assays (depositor defined):AID2097, AID2223, AID489010, AID492950]; type: functional
T1 sequence (P9WHJ3 whole entry): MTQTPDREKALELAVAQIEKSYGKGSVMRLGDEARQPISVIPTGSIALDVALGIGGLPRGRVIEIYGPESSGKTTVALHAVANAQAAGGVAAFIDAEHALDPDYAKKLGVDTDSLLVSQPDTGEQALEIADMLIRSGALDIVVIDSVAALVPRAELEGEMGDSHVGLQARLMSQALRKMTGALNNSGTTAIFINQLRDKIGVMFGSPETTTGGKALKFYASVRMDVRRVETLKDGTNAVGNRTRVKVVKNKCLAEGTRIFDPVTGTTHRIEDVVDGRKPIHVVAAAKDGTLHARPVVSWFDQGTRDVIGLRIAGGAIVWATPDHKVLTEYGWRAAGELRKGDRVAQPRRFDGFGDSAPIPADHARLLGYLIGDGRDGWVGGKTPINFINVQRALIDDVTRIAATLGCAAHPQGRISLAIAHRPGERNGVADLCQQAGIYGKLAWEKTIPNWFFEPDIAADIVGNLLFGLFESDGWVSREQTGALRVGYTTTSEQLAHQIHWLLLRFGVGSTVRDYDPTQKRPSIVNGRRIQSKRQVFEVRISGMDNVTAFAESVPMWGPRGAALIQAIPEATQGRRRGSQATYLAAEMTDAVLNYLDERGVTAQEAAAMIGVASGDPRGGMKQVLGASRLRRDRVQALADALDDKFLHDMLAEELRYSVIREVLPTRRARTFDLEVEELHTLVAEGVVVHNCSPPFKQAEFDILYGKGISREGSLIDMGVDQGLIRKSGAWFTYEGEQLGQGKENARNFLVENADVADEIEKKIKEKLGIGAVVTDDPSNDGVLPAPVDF

[3] = molecular target: T2, Replicative DNA helicase DnaB (Mycobacterium tuberculosis, UniProt P9WMR3); assay: DnaB intein splicing inhibitors, dose response, biochemical, cell-free fluorescence (AID 449749); type: functional
T2 sequence (P9WMR3 whole entry): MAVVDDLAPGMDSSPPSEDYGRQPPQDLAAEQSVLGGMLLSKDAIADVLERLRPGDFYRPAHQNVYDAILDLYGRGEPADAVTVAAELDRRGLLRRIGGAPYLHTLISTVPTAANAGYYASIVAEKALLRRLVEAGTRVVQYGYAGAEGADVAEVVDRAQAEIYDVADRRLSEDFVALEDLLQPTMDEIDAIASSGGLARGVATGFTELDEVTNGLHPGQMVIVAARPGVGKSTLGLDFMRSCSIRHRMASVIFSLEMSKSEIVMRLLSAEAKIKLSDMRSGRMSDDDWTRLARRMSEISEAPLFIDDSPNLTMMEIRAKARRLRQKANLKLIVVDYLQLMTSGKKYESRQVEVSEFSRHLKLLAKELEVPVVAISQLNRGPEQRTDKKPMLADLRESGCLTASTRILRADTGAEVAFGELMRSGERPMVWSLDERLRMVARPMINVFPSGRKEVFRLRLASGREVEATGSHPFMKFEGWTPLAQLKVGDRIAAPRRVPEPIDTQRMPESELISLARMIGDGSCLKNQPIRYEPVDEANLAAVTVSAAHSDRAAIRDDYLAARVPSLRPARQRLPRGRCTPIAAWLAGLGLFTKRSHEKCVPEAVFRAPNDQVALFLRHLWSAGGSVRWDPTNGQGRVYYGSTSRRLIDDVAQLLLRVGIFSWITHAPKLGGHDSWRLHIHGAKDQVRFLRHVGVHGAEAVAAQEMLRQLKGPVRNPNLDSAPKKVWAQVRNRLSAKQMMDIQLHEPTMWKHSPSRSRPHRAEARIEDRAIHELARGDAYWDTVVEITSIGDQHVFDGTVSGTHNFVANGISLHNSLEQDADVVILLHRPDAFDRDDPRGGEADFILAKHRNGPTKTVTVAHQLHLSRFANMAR

[4] = growth suppression of PTEN-null colon cells, dose response, cell-based, HCT116 PTEN knockout (AID 1047); type: functional;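 further: HCT116 colon tumor cells with PTEN knocked out; cells exposed to compound for 60 hours before readout; potency for loss of cell viability measured by luminescence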
[5] = growth suppression of beta-catenin-knockout colon cells, dose response, cell-based, HCT116, human colon tumor (AID 1045); type: functional;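 further: HCT116 colon tumor cells with beta catenin knocked out; cells exposed to compound for 60 hours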
[6] = Luminescence Cell-Based Dose Confirmation HTS to Identify Activators of 5'UTR Stem-Loop Driven Alpha-Synuclein mRNA Translation in H4 Neuroglioblastoma Cells. [Related pubchem assays: 1829 (Project Summary), 1814 (Primary HTS)]; type: functional
[7] = Luminescence Cell-Based Dose Response HTS to Identify Activators of Luciferase Translation or Activity in H4 […] Cells. [Related pubchem assays: 1829 (Project Summary), 1814 (Primary HTS)]; type: functional
[8] = test system: H4; assay: Luminescence Cell-Based Dose Response HTS to Identify Activators of 5'UTR Stem-Loop Driven Prion Protein mRNA Translation in H4 Neuroglioblastoma Cells. [Related pubchem assays: 1829 (Project Summary), 1814 (Primary HTS)]; type: functional; settings: Homo sapiens
[9] = molecular target: T3, Heat shock factor protein 1 (Mus musculus, UniProt P38532); assay: HSF1 potentiators in luciferase reporter cells, confirmation, cell-based, NIH3T3, luminescence, dose retest (AID 435004); type: functional;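 further: stress induced by proteasome inhibitor MG132 added 30 min after compound; luciferase reporter driven by HSF1 response element in NIH3T3 cells; actives raise luminescence as potentiators of the MG132 stress response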
T3 sequence (P38532 whole entry): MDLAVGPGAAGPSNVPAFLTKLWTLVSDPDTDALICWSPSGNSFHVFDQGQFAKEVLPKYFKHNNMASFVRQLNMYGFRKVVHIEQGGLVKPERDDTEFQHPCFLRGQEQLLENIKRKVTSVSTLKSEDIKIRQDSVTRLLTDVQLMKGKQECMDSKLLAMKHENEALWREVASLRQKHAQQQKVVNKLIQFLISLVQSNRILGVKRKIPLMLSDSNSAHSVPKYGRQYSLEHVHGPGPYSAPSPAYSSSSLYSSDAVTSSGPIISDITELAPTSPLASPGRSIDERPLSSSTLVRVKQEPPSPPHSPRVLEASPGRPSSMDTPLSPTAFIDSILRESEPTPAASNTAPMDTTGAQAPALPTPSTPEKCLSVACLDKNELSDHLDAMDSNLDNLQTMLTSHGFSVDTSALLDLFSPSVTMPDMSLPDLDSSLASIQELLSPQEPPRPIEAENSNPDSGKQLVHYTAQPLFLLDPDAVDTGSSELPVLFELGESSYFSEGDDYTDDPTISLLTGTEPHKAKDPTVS

[10] = test system: Streptococcus; assay: Group A Streptococcus viability loss, dose response, counter-screen for streptokinase expression inhibitor project, luminescence, BacTiterGlo (AID 1915); type: functional, organism-based;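 further: potency for reduction of bacterial viability or growth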
[11] = test system: Streptococcus sp. 'group A'; assay: growth inhibition of control SK(-) GAS strain, dose response, counter-screen for streptokinase expression inhibitor project, luminescence, kanamycin, BacTiterGlo, confirmation (AID 1900); type: functional, organism-based
[12] = molecular target: T4, Streptokinase A (Streptococcus pyogenes serotype M1, UniProt P10520); assay: S. pyogenes streptokinase expression inhibitors, potency, dose response, plasminogen activation absorbance, OD405 (AID 1914); type: functional, Streptococcus pyogenes M1 GAS;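 further: secreted streptokinase activity via plasminogen activation per viability signal from cell pellet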
T4 sequence (P10520 whole entry): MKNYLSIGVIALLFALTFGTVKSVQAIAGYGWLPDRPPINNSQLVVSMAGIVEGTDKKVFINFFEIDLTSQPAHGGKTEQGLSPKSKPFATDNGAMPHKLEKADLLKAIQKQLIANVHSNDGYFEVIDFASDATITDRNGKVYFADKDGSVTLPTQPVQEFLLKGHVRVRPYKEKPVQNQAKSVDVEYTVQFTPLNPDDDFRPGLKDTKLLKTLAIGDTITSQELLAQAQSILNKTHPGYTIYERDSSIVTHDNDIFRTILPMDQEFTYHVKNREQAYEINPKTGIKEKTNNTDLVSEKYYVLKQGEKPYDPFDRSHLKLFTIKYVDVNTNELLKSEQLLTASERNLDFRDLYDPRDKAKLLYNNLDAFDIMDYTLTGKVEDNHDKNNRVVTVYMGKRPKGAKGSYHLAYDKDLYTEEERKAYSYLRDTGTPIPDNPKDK

[13] = molecular target: T3, Heat shock factor protein 1; assay: inhibition of MG132-induced HSE-luciferase signal, confirmation, cell-based, NIH3T3, luminescence, dose retest (AID 2382); type: functional;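 further: NIH3T3 fibroblasts with HSF1-driven luciferase reporter stressed by proteasome inhibitor MG132; luminescence from HSF1-driven luciferase expression after 8 hours of MG132 stress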
[14] = molecular target: Cytochrome P450 2C19 (Homo sapiens, UniProt P33261); assay: Cytochrome panel assay with activity outcomes. Panel member name: p450-cyp2c19 Compounds with AC50 equal or less than 10 uM are considered active; type: functional; settings: read-out: AC50
Cytochrome P450 2C19, sequence (P33261 whole entry): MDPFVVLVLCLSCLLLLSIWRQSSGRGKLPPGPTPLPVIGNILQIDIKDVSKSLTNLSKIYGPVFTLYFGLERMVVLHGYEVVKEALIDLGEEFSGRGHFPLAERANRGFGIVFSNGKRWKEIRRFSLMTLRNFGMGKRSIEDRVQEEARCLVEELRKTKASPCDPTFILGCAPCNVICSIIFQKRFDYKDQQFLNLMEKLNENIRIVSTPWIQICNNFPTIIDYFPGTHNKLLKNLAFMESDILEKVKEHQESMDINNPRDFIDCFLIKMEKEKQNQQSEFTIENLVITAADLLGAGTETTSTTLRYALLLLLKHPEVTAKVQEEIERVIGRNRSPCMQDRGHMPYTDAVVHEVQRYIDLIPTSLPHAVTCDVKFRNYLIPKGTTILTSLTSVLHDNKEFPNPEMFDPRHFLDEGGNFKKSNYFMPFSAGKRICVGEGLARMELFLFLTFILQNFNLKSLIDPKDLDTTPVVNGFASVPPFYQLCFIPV

Cytochrome P450 2D6, sequence (P10635 whole entry): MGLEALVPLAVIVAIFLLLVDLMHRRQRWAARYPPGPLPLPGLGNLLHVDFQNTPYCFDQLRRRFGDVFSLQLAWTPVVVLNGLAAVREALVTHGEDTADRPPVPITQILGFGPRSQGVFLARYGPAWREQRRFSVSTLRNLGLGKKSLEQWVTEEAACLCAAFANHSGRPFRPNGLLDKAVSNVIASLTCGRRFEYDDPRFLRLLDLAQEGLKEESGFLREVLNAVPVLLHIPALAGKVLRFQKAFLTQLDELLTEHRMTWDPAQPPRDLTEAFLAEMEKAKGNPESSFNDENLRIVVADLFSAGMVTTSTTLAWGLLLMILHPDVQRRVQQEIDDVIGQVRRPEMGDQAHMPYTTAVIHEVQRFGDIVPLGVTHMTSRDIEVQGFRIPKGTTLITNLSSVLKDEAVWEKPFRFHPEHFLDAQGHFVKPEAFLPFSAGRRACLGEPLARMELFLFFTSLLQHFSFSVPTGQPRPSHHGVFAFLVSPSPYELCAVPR

SMILES | EC50 [6] | EC50 [7] | EC50 [8] | further results
COc1ccc(-c2cc(C(F)F)nc(-n3nc(C)cc3C)n2)cc1 |  |  |  | AC50 [1]: 22.4 µM (inconclusive)
Cc1ccc(N/C([S-])=C(/C(=O)c2ccc(F)cc2)[n+]2ccccc2)cc1 |  |  |  | EC50 [2]: 69.7 µM (active); AC50 [3]: > 380 µM (inactive)
Cc1ccc(-c2csc(NC(=O)CSc3n[nH]c4c5ccccc5nc-4n3)n2)cc1 |  |  |  | EC50 [4]: 24.1 µM (active); EC50 [5]: 21.9 µM (active)
Cc1ccc(Cn2ccnc2C(=O)Nc2ccccc2)cc1 | 30.4 µM (active) | 58 µM (active) |  | 
CCNc1ncc2nc(-c3ccc(F)cc3)c(=O)n(C[C@H]3CCCO3)c2n1 |  |  |  | AC50 [1]: 0.631 µM (inconclusive)
Oc1ccc(Cl)cc1/C=N\c1cnc2ccccc2c1 |  |  |  | AC50 [1]: 5.01 µM (inconclusive)
Cc1nc2ccccc2c(=O)n1-c1ccc(Br)cn1 | > 120 µM (not active) | > 120 µM (not active) | > 120 µM (not active) | 
CCN(c1ccccc1)S(=O)(=O)c1ccc(NC(=S)NC(=O)c2ccc(Br)o2)cc1 |  |  |  | AC50 [1]: 3.16 µM (inconclusive)
Cc1csc(SCC(=O)c2c(N)n(C)c(=O)n(C)c2=O)n1 | 2.14 µM (active) | 29.5 µM (active) | > 120 µM (not active) | 
CCCn1c(SCc2nc(O)c3c(C)c(C)sc3n2)nc2ccccc2c1=O |  |  |  | EC50 [9]: 71.9 µM (active); EC50 [4]: 11.8 µM (active); EC50 [5]: 12.5 µM (active)
CCCCNC(=O)Cn1nc([N+](=O)[O-])c([N+](=O)[O-])c1C | > 120 µM (not active) | 11.1 µM (active) | 35.2 µM (active) | 
O=C(O)c1ccc(Cn2cnc3scc(-c4ccccc4)c3c2=O)cc1 | 9.7 µM (active) | > 120 µM (not active) | > 120 µM (not active) | 
CC(C)(C)c1ccc(-c2noc(-c3ccc4c(c3)CCO4)n2)cc1 | 0.493 µM (active) | 2.25 µM (active) | 0.553 µM (active) | EC50 [10]: > 150 µM (not active); EC50 [11]: 5.26 µM (active); EC50 [12]: 46 µM (active)
Cn1c(SCC(=O)N2CCCCC2)nc2c3ccccc3nc-2c1O |  |  |  | EC50 [4]: 22.3 µM (active); EC50 [5]: 35.8 µM (active)
Cc1ccc(C(C(=O)NC2CCCC2)N(C(=O)Cc2cccs2)c2ccc3c(c2)OCCO3)cc1 (centres undefined) |  |  |  | EC50 [4]: 46.5 µM (active); EC50 [5]: 62.8 µM (active)
COc1ccc(C(CCN(Cc2ccc(OC)c(OC)c2)C(=O)CCl)c2ccccc2)cc1 (centres undefined) |  |  |  | EC50 [2]: 0.269 µM (active); EC50 [4]: 3.07 µM (active); EC50 [13]: 3.19 µM (active); AC50 [3]: 1.12 µM (active); EC50 [5]: 3 µM (active)
Cc1ccc(-n2c([S-])c(C(=O)Nc3ccc(OC(F)F)cc3)[n+]3ccc(C(=O)NCCO)cc23)cc1C | 7.99 µM (active) | > 120 µM (not active) | 21.3 µM (active) | 
Cc1cccc(N=Nc2c[nH]nc2-c2ccco2)c1 | 29.5 µM (active) | 14.7 µM (active) | 73.5 µM (active) | 
Cc1ccc(C)n1-c1ccc(C(=O)Nc2ccccc2F)cc1 | 11.6 µM (active) | 43.1 µM (active) | 14.5 µM (active) | 
Cc1cc(C)nc(Sc2ccc3nnnn3n2)n1 | 24.7 µM (active) | 22.5 µM (active) | 11.3 µM (active) | 
Cc1ccc(NC2=C(C(=O)Nc3c(C)cc(C)cc3C)C(=N)C(C(=O)Nc3ccc(OC(F)(F)F)cc3)S2)cc1 (centres undefined) |  |  |  | EC50 [4]: 40 µM (active); EC50 [5]: 42.8 µM (active)
CCOC(=O)C/C(C)=N/NC(=O)COc1ccccc1C |  |  |  | EC50 [2]: 2.36 µM (active); AC50 [3]: 4.39 µM (active)
COc1ccc(/N=C2/C(=N\c3ccc(OC)cc3)N(c3ccccc3)C(=S)N2C(=O)c2ccc(Cl)cc2)cc1 | 41.1 µM (active) | 47.3 µM (active) | 18.7 µM (active) | 
CSc1nncn1/N=C/c1ccc2c(c1)OCO2 |  |  |  | AC50 [14]: 25.1 µM (inconclusive); AC50 [1]: 22.4 µM (inconclusive)
C=C1C[C@@H]2[C@H](CC[C@]3(C)C(=O)CC[C@@H]23)[C@@]2(C)C=CC(=O)C=C12 [EXEMESTANE] | 2.79 µM (active) | 6.44 µM (active) | 26.7 µM (active) | 
